Assay: Preliminary extraction study
Conditions: over a wide range of acidity and ionic strength

Compound: CCCCCCCCNC(=O)c1cccc(=O)n1O [octyl-1,2-HOPO, 1-Hydroxy-6-N-octylcarboxamide-2(1H)-pyridinone]
- specificity as extractant for Pu(IV): high specificity
